US20240425464A1, “Substituted Monohydrazides as Potent Antifungal Agents” (University of Kentucky Research Foundation, priority 2023, published 2024)
Converted amounts (≈) assume the structure as drawn. Where two headings read alike, the source gives them in different places.

Key:
[1] = system: C. albicans ATCC 10231 (strain A); experiment: MIC determination by in vitro antifungal assay (CLSI broth dilution); format: cell-based, Candida albicans; settings: strain A = C. albicans ATCC 10231, no visible growth, 48 h at 35° C.
Procedure: (§1) 10 mg/mL stock solutions of compounds 1a-9j were prepared in dimethyl sulfoxide (DMSO) and were stored at −20° C. in the dark. The antifungal agent amphotericin B (AmB) was purchased from VWR (Radnor PA, USA). AmB was dissolved in DMSO at a final concentration of 5 mg/mL and was stored at −20° C., protected from light. Candida albicans American Type Culture Collection (ATCC) 10231 (strain A), C. albicans ATCC 64124 (B), and C. albicans ATCC MYA-2876 (C) were obtained from Utah State University. C. albicans ATCC 90819 (D), C. albicans ATCC MYA-2310 (E), C. albicans ATCC MYA-1237 (F), C. albicans ATCC MYA-1003 (G), Candida glabrata ATCC 2001 (H), Candida krusei ATCC 6258 (I), Candida parapsilosis ATCC 22019 (J), Cryptococcus neoformans ATCC MYA-895 (M), Aspergillus terreus ATCC MYA-3633 (N), and Aspergillus flavus ATCC MYA-3631 (0) were obtained from the American Type Culture Collection (ATCC; Manassas, VA, USA). Aspergillus nidulans ATCC 38163 (P) was obtained from University of Kentucky. Clinically derived Aspergillus fumigatus NRRL 163 (Q), A. fumigatus NRRL 5109 (R), and A. fumigatus NRRL 6113 (S) were obtained from Northern Regional Research Laboratory (NRRL). Candida auris 384 (K), C. auris 390 (L), and fungal strains 381-400 (including 10 C. auris (AR Bank #381-390), 3 Candida duobushaemulonii (AR Bank #391, AR Bank #392, and AR Bank #394), 2 Candida haemulonii (AR Bank #393 and AR Bank #395), 1 Kodameae ohmeri (AR Bank #396), 1 C. krusei (AR Bank #397), 1 Candida lusitaniae (AR Bank #398), and 2 Saccharomyces cerevisiae strains (AR Bank #399 and AR Bank #400)) were part of a larger fungal library from the AR Bank maintained by the Centers for Disease Control and Prevention (CDC; Atlanta, GA, USA). Filamentous fungi and yeasts were cultivated at 35° C. in RPMI 1640 medium (with L-glutamine, without sodium bicarbonate, Sigma-Aldrich, St. Louis, MO) buffered to a pH of 7.0 with 0.165 M morpholinepropanesulfonic acid (MOPS) buffer (Sigma-Aldrich). For cytotoxicity assays, HepG2 and the mouse macrophage cell line J774A.1 were obtained from University of Kentucky. The human embryonic kidney cell line, HEK-293, was bought from the ATCC. Mammalian cells were grown in Dulbecco's Modified Eagle's Medium (DMEM) (from VWR) with 10% fetal bovine serum (FBS) (from VWR) and 1% Pen/Strep (from ATCC). Cell lines were cultured at 37° C. with 5% CO2 and passaged by trypsinization with 0.05% trypsin: 0.53 mM EDTA (from Sigma-Aldrich).
(§2) The MIC values of compounds 1a-9j against yeast cells (strains A-P and 381-400) were determined in 96-well plates as described in the CLSI documents M27-A3 and M38-A2 with minor modifications.^2 A single colony of freshly prepared yeast cells was used to inoculate 5 mL of yeast extract peptone dextrose (YPD) broth prior to incubation overnight with shaking at 200 rpm at 35° C. From the actively growing yeast culture, 100 µL were then transferred to 900 μL of RPMI 1640 medium and re-adjusted to achieve OD600 of 0.12 (˜1×10^6 CFU/mL). The cell suspension was further diluted to achieve 1:100 in RPMI 1640 medium. 100 μL of cells were added to the wells of a 96-well microtiter plates that contained 100 µL of the compound solution to obtain concentrations of 0.06-31.3 μg/mL of compounds 1a-9j or AmB prior to incubation for 48 h at 35° C. […]

[2] = system: C. albicans ATCC 90819 (D); experiment: MIC determination by in vitro antifungal assay; format: cell-based, Candida albicans
Procedure: as §1, §2

[3] = system: C. albicans ATCC MYA-1237 (F); experiment: MIC determination by in vitro antifungal assay; format: cell-based, Candida albicans; settings: strain F = C. albicans ATCC MYA-1237(R)
Procedure: as §1, §2

[4] = system: C. albicans ATCC MYA-2876 (C); experiment: MIC determination by in vitro antifungal assay; format: cell-based, Candida albicans; settings: strain C = C. albicans ATCC MYA-2876(S)
Procedure: as §1, §2

[5] = system: Candida glabrata ATCC 2001 (H); experiment: MIC determination by in vitro antifungal assay; format: cell-based; settings: ATCC 2001 in text
Procedure: as §1, §2

[6] = system: Aspergillus flavus ATCC MYA-3631 (O); experiment: MIC determination by in vitro antifungal assay; format: cell-based; settings: Aspergillus flavus; strain O = A. flavus ATCC MYA-3631; read-out: MIC
Procedure: as §1
(§3) The MIC values of compounds 1a-9j against yeast cells (strains A-P and 381-400) were determined in 96-well plates as described in the CLSI documents M27-A3 and M38-A2 with minor modifications.^2 A single colony of freshly prepared yeast cells was used to inoculate 5 mL of yeast extract peptone dextrose (YPD) broth prior to incubation overnight with shaking at 200 rpm at 35° C. From the actively growing yeast culture, 100 µL were then transferred to 900 μL of RPMI 1640 medium and re-adjusted to achieve OD600 of 0.12 (˜1×10^6 CFU/mL). The cell suspension was further diluted to achieve 1:100 in RPMI 1640 medium. 100 μL of cells were added to the wells of a 96-well microtiter plates that contained 100 µL of the compound solution to obtain concentrations of 0.06-31.3 μg/mL of compounds 1a-9j or AmB prior to incubation for 48 h at 35° C.
(§4) Finally, the activity of these monohydrazides was explored against […] non-Candida strains: Cryptococcus neoformans ATCC MYA-895 (M), Aspergillus terreus ATCC MYA-3633 (N), Aspergillus flavus ATCC MYA-3631 (O), Aspergillus nidulans ATCC 38163 (P), Aspergillus fumigatus NRRL 163 (Q), A. fumigatus NRRL 5109 (R), and A. fumigatus NRRL 6113 (S) (Tables 1A and 1B). The double dilution method was used with concentrations ranging from 0.06 to 31.3 j·tg mL^−1 for monohydrazides 1a-9j, and the commercially available positive antifungal control amphotericin B (AmB).

[7] = system: Aspergillus fumigatus NRRL 163 (Q); experiment: MIC determination by in vitro antifungal assay; format: cell-based; settings: Aspergillus fumigatus, NRRL163; strain Q = A. fumigatus NRRL 163; read-out: MIC
Procedure: as §1, §3, §4

[8] = system: Aspergillus nidulans ATCC 38163 (P); experiment: MIC determination by in vitro antifungal assay; format: cell-based
Procedure: as §1, §3, §4

[9] = system: Cryptococcus neoformans ATCC MYA-895 (M); experiment: MIC determination by in vitro antifungal assay; format: cell-based; settings: strain M = C. neoformans ATCC MYA-895
Procedure: as §1, §3, §4

[10] = system: A. fumigatus NRRL 5109 (R); experiment: MIC determination by in vitro antifungal assay; format: cell-based, Aspergillus fumigatus; settings: Aspergillus fumigatus, NRRL5109; strain R = A. fumigatus NRRL 5109; read-out: MIC
Procedure: as §1, §3, §4

[11] = system: A. fumigatus NRRL 6113 (S); experiment: MIC determination by in vitro antifungal assay; format: cell-based, Aspergillus fumigatus; settings: Aspergillus fumigatus, NRRL6113; strain S = A. fumigatus NRRL 6113; read-out: MIC
Procedure: as §1, §3, §4

[12] = Candida albicans, read-out: MIC

For `O=C(NNc1ccc(F)cc1F)c1cccc(Br)n1` [Compound 6g], the MIC ([1]; Candida albicans, ATCC10231, 48 h, read-out: MIC) was 1.95 µg/mL (≈ 5.94 µM), the MIC [1] was 3.9 μg/mL^−1 and the MIC ([2]; Candida albicans, ATCC90819, strain D = C. albicans ATCC 90819(R), read-out: MIC) was 1.95 µg/mL (≈ 5.94 µM). The MIC ([2]; strain D = C. albicans ATCC 90819(R)) was 3.9 μg/mL^−1, the MIC [3, 12] was 0.98 µg/mL (≈ 2.99 µM) and the MIC [3] was 1.95 μg/mL^−1. The MIC [4, 12] was 0.49 µg/mL (≈ 1.49 µM), the MIC [4] was 0.98 μg/mL^−1 and the MIC ([5]; Nakaseomyces glabratus, ATCC 2001 / ATCC 2004, strain H = C. glabrata ATCC 2004 (footnote), read-out: MIC) was 7.8 µg/mL (≈ 23.8 µM). For the same compound, the MIC ([5]; strain H = C. glabrata ATCC 2004 (footnote)) was 15.6 μg/mL^−1, the MIC [6] was over 31.3 µg/mL and the MIC [7] was over 31.3 µg/mL. The MIC ([8]; Aspergillus nidulans, ATCC38163, strain P = A. nidulans ATCC 38163, read-out: MIC) was 3.9 µg/mL (≈ 11.9 µM), the MIC ([8]; strain P = A. nidulans ATCC 38163) was 1.95 μg/mL^−1 and the MIC ([9]; Cryptococcus neoformans, read-out: MIC) was 0.98 µg/mL (≈ 2.99 µM). It also gave an MIC [9] of 0.49 μg/mL^−1, an MIC [10] of 31.3 µg/mL (≈ 95.4 µM) and an MIC [11] of over 31.3 µg/mL.
